Laboratory results as given in patent publication US20220119354A1, “DIAMINO-SUBSTITUTED PYRIDINES AND PYRIMIDINES AS HERBICIDES” (FMC Corporation, priority 2019, published 2022).

Assays:
Assay type in all cases: in vivo
[1] = test system: barnyardgrass (Echinochloa crus-galli); experiment: Test B flooded paddy test, barnyardgrass; conditions: Flood, 250 g ai/ha, applied to paddy water, 2-leaf stage, visual evaluation after 13 to 15 d
Method in brief: (§1)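 Growth to two leaves preceded treatment. Flooding to 3 cm above soil surface, then water-applied compound; depth kept constant. Scored visually relative to controls after 13–15 d greenhouse; 100 means full control.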

[2] = test system: sedge, umbrella (small-flower umbrella sedge, Cyperus difformis); experiment: Test B flooded paddy test, umbrella sedge; conditions: Flood, 250 g ai/ha, applied to paddy water, 2-leaf stage, visual evaluation after 13 to 15 d
Method in brief: as §1

[3] = test system: pigweed (Amaranthus retroflexus); experiment: Test A postemergence, pigweed; conditions: 0 to 100 scale
Method in brief: (§2)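 Using a solvent/surfactant formulation, test chemicals were sprayed onto freshly seeded soil or onto 2–10 cm seedlings at the one- to two-leaf stage. Visual injury ratings on a 0–100 scale were made about 10 d later in the greenhouse.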

[4] = test system: corn (Zea mays); experiment: Test A postemergence, corn; conditions: 0 to 100 scale
Method in brief: as §2

[5] = test system: ryegrass, Italian (Lolium multiflorum); experiment: Test A preemergence, Italian ryegrass; conditions: 0 to 100 scale; for Ryegrass, Italian plant response rating: 0 is no effect, 100 is complete control
Method in brief: as §2

[6] = test system: pigweed (Amaranthus retroflexus); experiment: Test A preemergence, pigweed; conditions: 0 to 100 scale; for Pigweed plant response rating: 0 is no effect, 100 is complete control
Method in brief: as §2

[7] = test system: blackgrass (Alopecurus myosuroides); experiment: Test A postemergence, blackgrass; conditions: 0 to 100 scale
Method in brief: as §2

[8] = test system: ragweed (common ragweed, Ambrosia elatior); experiment: Test A preemergence, ragweed; conditions: 0 to 100 scale; for Ragweed plant response rating: 0 is no effect, 100 is complete control
Method in brief: as §2

[9] = test system: ryegrass, Italian (Lolium multiflorum); experiment: Test A postemergence, Italian ryegrass; conditions: 0 to 100 scale
Method in brief: as §2

[10] = test system: wheat (Triticum aestivum); experiment: Test A postemergence, wheat; conditions: 0 to 100 scale
Method in brief: as §2

[11] = test system: ragweed (common ragweed, Ambrosia elatior); experiment: Test A postemergence, ragweed; conditions: 0 to 100 scale
Method in brief: as §2

[12] = test system: foxtail, giant (Setaria faberii); experiment: Test A preemergence, giant foxtail; conditions: 0 to 100 scale; for Foxtail, Giant plant response rating: 0 is no effect, 100 is complete control
Method in brief: as §2

[13] = test system: foxtail, giant (Setaria faberii); experiment: Test A postemergence, giant foxtail; conditions: 0 to 100 scale
Method in brief: as §2

[14] = test system: ducksalad (Heteranthera limosa); experiment: Test B flooded paddy test, ducksalad; conditions: Flood, 250 g ai/ha, applied to paddy water, 2-leaf stage, visual evaluation after 13 to 15 d
Method in brief: as §1

[15] = test system: galium (catchweed bedstraw, Galium aparine); experiment: Test A postemergence, galium; conditions: 0 to 100 scale
Method in brief: as §2

[16] = test system: kochia (Kochia scoparia); experiment: Test A preemergence, kochia; conditions: 0 to 100 scale; for Kochia plant response rating: 0 is no effect, 100 is complete control
Method in brief: as §2

[17] = test system: rice (Oryza sativa); experiment: Test B flooded paddy test, rice; conditions: Flood, 250 g ai/ha, applied to paddy water, 2-leaf stage, visual evaluation after 13 to 15 d
Method in brief: as §1

[18] = test system: kochia (Kochia scoparia); experiment: Test A postemergence, kochia; conditions: 0 to 100 scale
Method in brief: as §2

[19] = test system: barnyardgrass (Echinochloa crus-galli); experiment: Test A postemergence, barnyardgrass; conditions: 0 to 100 scale
Method in brief: as §2

[20] = test system: barnyardgrass (Echinochloa crus-galli); experiment: Test A preemergence, barnyardgrass; conditions: 0 to 100 scale; for Barnyardgrass plant response rating: 0 is no effect, 100 is complete control
Method in brief: as §2

[21] = 125 g ai/ha, 0 no effect, 100 complete control
[22] = 500 g ai/ha, 0 no effect, 100 complete control

Cc1cc(C)cc(OC[C@@H](C)Nc2ncc(C(F)(F)F)c(N)n2)c1 [Compound 25, N2-[(1R)-2-(3,5-dimethylphenoxy)-1-methylethyl]-5-(trifluoromethyl)-2,4-pyrimidinediamine]
pest or weed control at 250 g/ha ([1]; Echinochloa crus-galli, 360 h, read-out: Plant response rating, Barnyardgrass (0 to 100 scale, 0 is no effect, 100 is complete control)): 0%
pest or weed control at 250 g/ha ([2]; Cyperus difformis, 360 h, read-out: Plant response rating, Sedge, Umbrella (0 to 100 scale, 0 is no effect, 100 is complete control)): 100%
pest or weed control at 125 g/ha ([3]; Amaranthus retroflexus, post-emergence, 240 h, 125 g ai/ha, read-out: Plant response rating, Pigweed): 70%
pest or weed control at 500 g/ha ([3]; Amaranthus retroflexus, post-emergence, 240 h, 500 g ai/ha, read-out: Plant response rating, Pigweed): 90%
Corn plant response rating (crop injury, 0 = no effect, 100 = complete kill) at 125 g/ha ([4]; Zea mays, post-emergence, 240 h, 125 g ai/ha): 20%
Corn plant response rating (crop injury, 0 = no effect, 100 = complete kill) at 500 g/ha ([4]; Zea mays, post-emergence, 240 h, 500 g ai/ha): 60%
Plant response rating, Ryegrass, Italian ([5]; 125 g ai/ha): 20
Plant response rating, Ryegrass, Italian ([5]; 500 g ai/ha): 70
Plant response rating, Pigweed ([6]; 125 g ai/ha): 60
Plant response rating, Pigweed ([6]; 500 g ai/ha): 100
pest or weed control at 125 g/ha ([7]; Alopecurus myosuroides, post-emergence, 240 h, 125 g ai/ha, read-out: Plant response rating, Blackgrass): 0%
pest or weed control at 500 g/ha ([7]; Alopecurus myosuroides, post-emergence, 240 h, 500 g ai/ha, read-out: Plant response rating, Blackgrass): 70%
Plant response rating, Ragweed ([8]; 125 g ai/ha): 80
Plant response rating, Ragweed ([8]; 500 g ai/ha): 100
pest or weed control at 125 g/ha ([9]; Lolium multiflorum, post-emergence, 240 h, 125 g ai/ha, read-out: Plant response rating, Ryegrass, Italian): 0%
pest or weed control at 500 g/ha ([9]; Lolium multiflorum, post-emergence, 240 h, 500 g ai/ha, read-out: Plant response rating, Ryegrass, Italian): 20%
plant injury at 125 g/ha ([10]; Triticum aestivum, post-emergence, 240 h, 125 g ai/ha, read-out: Plant response rating, Wheat): 0%
plant injury at 500 g/ha ([10]; Triticum aestivum, post-emergence, 240 h, 500 g ai/ha, read-out: Plant response rating, Wheat): 30%
pest or weed control at 125 g/ha ([11]; Ambrosia artemisiifolia, post-emergence, 240 h, 125 g ai/ha, read-out: Plant response rating, Ragweed): 60%
pest or weed control at 500 g/ha ([11]; Ambrosia artemisiifolia, post-emergence, 240 h, 500 g ai/ha, read-out: Plant response rating, Ragweed): 90%
Plant response rating, Foxtail, Giant ([12]; 125 g ai/ha): 50
Plant response rating, Foxtail, Giant ([12]; 500 g ai/ha): 100
pest or weed control at 125 g/ha ([13]; Setaria faberi, post-emergence, 240 h, 125 g ai/ha, read-out: Plant response rating, Foxtail, Giant): 10%
pest or weed control at 500 g/ha ([13]; Setaria faberi, post-emergence, 240 h, 500 g ai/ha, read-out: Plant response rating, Foxtail, Giant): 80%
pest or weed control at 250 g/ha ([14]; Heteranthera limosa, 360 h, read-out: Plant response rating, Ducksalad (0 to 100 scale, 0 is no effect, 100 is complete control)): 0%
pest or weed control at 125 g/ha ([15]; Galium, post-emergence, 240 h, 125 g ai/ha, read-out: Plant response rating, Galium): 80%
pest or weed control at 500 g/ha ([15]; Galium, post-emergence, 240 h, 500 g ai/ha, read-out: Plant response rating, Galium): 90%
Plant response rating, Kochia ([16]; 125 g ai/ha): 20
Plant response rating, Kochia ([16]; 500 g ai/ha): 90
plant injury at 250 g/ha ([17]; Oryza sativa, 360 h, read-out: Plant response rating, Rice (0 to 100 scale, 0 is no effect, 100 is complete control)): 0%
pest or weed control at 125 g/ha ([18]; Bassia scoparia, post-emergence, 240 h, 125 g ai/ha, read-out: Plant response rating, Kochia): 60%
pest or weed control at 500 g/ha ([18]; Bassia scoparia, post-emergence, 240 h, 500 g ai/ha, read-out: Plant response rating, Kochia): 80%
pest or weed control at 125 g/ha ([19]; Echinochloa crus-galli, post-emergence, 240 h, 125 g ai/ha, read-out: Plant response rating, Barnyardgrass): 50%
pest or weed control at 500 g/ha ([19]; Echinochloa crus-galli, post-emergence, 240 h, 500 g ai/ha, read-out: Plant response rating, Barnyardgrass): 90%
Plant response rating, Barnyardgrass ([20]; 125 g ai/ha): 90
Plant response rating, Barnyardgrass ([20]; 500 g ai/ha): 100

CC(Nc1ncc(C(F)(F)F)c(N)n1)c1coc2cccc(F)c12 (racemic) [Compound 96]
Plant response rating, Barnyardgrass (0 to 100 scale, 0 is no effect, 100 is complete control) [1]: 0
Plant response rating, Sedge, Umbrella (0 to 100 scale, 0 is no effect, 100 is complete control) [2]: 0
Plant response rating, Pigweed [3, 21]: 60
Plant response rating, Pigweed [3, 22]: 90
Plant response rating, Corn [4, 21]: 40
Plant response rating, Corn [4, 22]: 60
Ryegrass, Italian plant response rating ([5]; 125 g ai/ha): 0
Ryegrass, Italian plant response rating ([5]; 500 g ai/ha): 50
Pigweed plant response rating ([6]; 125 g ai/ha): 70
Pigweed plant response rating ([6]; 500 g ai/ha): 90
Plant response rating, Blackgrass [7, 21]: 0
Plant response rating, Blackgrass [7, 22]: 30
Ragweed plant response rating ([8]; 125 g ai/ha): 50
Ragweed plant response rating ([8]; 500 g ai/ha): 70
Plant response rating, Ryegrass, Italian [9, 21]: 0
Plant response rating, Ryegrass, Italian [9, 22]: 0
Plant response rating, Wheat [10, 21]: 0
Plant response rating, Wheat [10, 22]: 0
Plant response rating, Ragweed [11, 21]: 20
Plant response rating, Ragweed [11, 22]: 80
Foxtail, Giant plant response rating ([12]; 125 g ai/ha): 20
Foxtail, Giant plant response rating ([12]; 500 g ai/ha): 80
Plant response rating, Foxtail, Giant [13, 21]: 0
Plant response rating, Foxtail, Giant [13, 22]: 60
Plant response rating, Ducksalad (0 to 100 scale, 0 is no effect, 100 is complete control) [14]: 0
Plant response rating, Galium [15, 21]: 60
Plant response rating, Galium [15, 22]: 80
Kochia plant response rating ([16]; 125 g ai/ha): 0
Kochia plant response rating ([16]; 500 g ai/ha): 0
Plant response rating, Rice (0 to 100 scale, 0 is no effect, 100 is complete control) [17]: 0
Plant response rating, Kochia [18, 21]: 20
Plant response rating, Kochia [18, 22]: 90
Plant response rating, Barnyardgrass [19, 21]: 30
Plant response rating, Barnyardgrass [19, 22]: 40
Barnyardgrass plant response rating ([20]; 125 g ai/ha): 0
Barnyardgrass plant response rating ([20]; 500 g ai/ha): 90

C[C@@H](Nc1ncc(C(F)(F)F)c(N)n1)c1cc2cc(F)ccc2o1 [Compound 9]
Plant response rating, Barnyardgrass (0 to 100 scale, 0 is no effect, 100 is complete control) [1]: 0
Plant response rating, Sedge, Umbrella (0 to 100 scale, 0 is no effect, 100 is complete control) [2]: 0
Plant response rating, Pigweed ([3]; 125 g ai/ha): 90
Plant response rating, Pigweed ([3]; 500 g ai/ha): 90
Plant response rating, Corn ([4]; 125 g ai/ha): 0
Plant response rating, Corn ([4]; 500 g ai/ha): 20
Plant response rating, Ryegrass, Italian ([5]; 125 g ai/ha): 0
Plant response rating, Ryegrass, Italian ([5]; 500 g ai/ha): 50
Plant response rating, Pigweed ([6]; 125 g ai/ha): 100
Plant response rating, Pigweed ([6]; 500 g ai/ha): 100
Plant response rating, Blackgrass ([7]; 125 g ai/ha): 0
Plant response rating, Blackgrass ([7]; 500 g ai/ha): 30
Plant response rating, Ragweed ([8]; 125 g ai/ha): 0
Plant response rating, Ragweed ([8]; 500 g ai/ha): 90
Plant response rating, Ryegrass, Italian ([9]; 125 g ai/ha): 0
Plant response rating, Ryegrass, Italian ([9]; 500 g ai/ha): 30
Plant response rating, Wheat ([10]; 125 g ai/ha): 0
Plant response rating, Wheat ([10]; 500 g ai/ha): 0
Plant response rating, Ragweed ([11]; 125 g ai/ha): 60
Plant response rating, Ragweed ([11]; 500 g ai/ha): 80
Plant response rating, Foxtail, Giant ([12]; 125 g ai/ha): 40
Plant response rating, Foxtail, Giant ([12]; 500 g ai/ha): 90
Plant response rating, Foxtail, Giant ([13]; 125 g ai/ha): 0
Plant response rating, Foxtail, Giant ([13]; 500 g ai/ha): 90
Plant response rating, Ducksalad (0 to 100 scale, 0 is no effect, 100 is complete control) [14]: 0
Plant response rating, Galium ([15]; 125 g ai/ha): 80
Plant response rating, Galium ([15]; 500 g ai/ha): 80
Plant response rating, Kochia ([16]; 125 g ai/ha): 60
Plant response rating, Kochia ([16]; 500 g ai/ha): 70
Plant response rating, Rice (0 to 100 scale, 0 is no effect, 100 is complete control) [17]: 0
Plant response rating, Kochia ([18]; 125 g ai/ha): 80
Plant response rating, Kochia ([18]; 500 g ai/ha): 90
Plant response rating, Barnyardgrass ([19]; 125 g ai/ha): 10
Plant response rating, Barnyardgrass ([19]; 500 g ai/ha): 70
Plant response rating, Barnyardgrass ([20]; 125 g ai/ha): 80
Plant response rating, Barnyardgrass ([20]; 500 g ai/ha): 80
